# Patent US6271342A, “Sugar-modified cytostatics” (Bayer Aktiengesellschaft, priority 1995, dated 2001)
# Several values for one entry are separate records, joined by “and”; a condition that tells them apart may be missing. Equal values may be shown once.
# Experiments:
# tumour cell lines = test: Growth inhibition test, carbohydrate-free comparison compounds (cell line not stated); type: cell-based
# Experimental: The human colon cell lines SW 480 and HT 29 (ATCC no. CCL 228 and HBT-38) and the mouse melanoma cell line B 16 F 10 were cultured in Roux dishes in RPMI 1640 medium with addition of 10% FCS. The cultures were then trypsinized and taken up in RPMI plus 10% FCS to a cell count of 50,000 cells/ml. 100 μl of cell suspension/well were introduced into a 96 microwell plate and incubated for 1 day at 37° C. in a CO2 incubating cabinet. A further 100 μl of RPMI medium and 1 μl of dimethyl sulphoxide with the test substances were then added. The growth was checked after day 3 and day 6. 40 μl of MTT solution (3-(4,5-dimethylthiazol-2-yl)-2,5-diphenyltetrazoline bromide) with an initial concentration of 5 mg/ml of H2 O were added to each microwave. The plate was incubated for 5 hours in a CO2 incubating cabinet at 37° C. The medium was then sucked off and 100 μl of i-propanol/well were added. After shaking for 30 minutes with 100 μl of H2 O, the extinction was measured at 540 nm with a Titertek Multiskan MCC/340 (Flow).
# HT 29 [1] = test: Growth inhibition test (MTT) for cytotoxic properties; type: cell-based, human; conditions: Table 1b
# In short: (§1)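 SW 480 and HT 29 cells in RPMI 1640 with 10% FCS were seeded at 50,000 cells/ml, grown 1 day at 37 °C, then exposed to compound added in DMSO. MTT (5 mg/ml stock) was applied after day 3 and day 6 for 5 h, and formazan absorbance was read at 540 nm. IC50 values reported.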
# SW 480 [2] = test: as above; type: cell-based, human; conditions: Table 1b
# In short: as §1
# B 16 F 10 = test: as above; type: cell-based, mouse; conditions: Table 1b
# In short: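 Cells in RPMI 1640 with 10% FCS pre-cultured 1 day at 37° C, then exposed to test substances in DMSO; growth checked after day 3 and day 6. Read-out by MTT, 5 h incubation, isopropanol solubilization, extinction at 540 nm.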
# [3] = Cleavage kinetics with human blood (HPLC); type: in vitro ADME; conditions: Table 2b; 37° C.
# Text: In Vitro Investigation of the Cleavability of the Glycoconjugates
# Cleavage Kinetics With Human Blood
# [4] = system: bone marrow parent cells of the mouse; test: CSF-induced proliferation of bone marrow parent cells, in vitro; type: cell-based; conditions: recombinant murine GM-CSF, 7 days
# Experimental: Bone marrow cells are flushed out of the femur of mice. 10^5 cells are incubated in McCoy SA medium (0.3% agar) together with recombinant murine GM-CSF (Genzyme; parent cell colony formation) and the substances (10^-4 to 100 μg/ml) at 37° C. and 7% CO2. 7 days later, the colonies ([…]) and clusters (17-50 cells) are counted.
# CXF 280 = test: Two-layer soft agar culture of human tumour xenografts; type: cell-based; conditions: T/C ≤30%
# Experimental: (§2) The in vitro activity of glycoconjugates of quinolone-a was determined on human tumour xenografts in a two-layer soft agar culture system according to Hamburger and Salmon (Science 197: 461-463).
# (§3) The solid tumours were initially grown in the athymic naked mouse (NMRI nu/nu), obtained by surgery and comminuted mechanically. Individual cells were then obtained by incubation in an enzyme mixture of collagenase 0.05%, DNAse 0.07% and hyaluronidase 0.1% in RPMI at 37° C. for 30 minutes. The cells were washed 2× and then passed through a sieve of 200 μm and 20 μm mesh width.
# (§4) The base layer comprises 0.2 ml of Iscoves's Modified Dulbeccos Medium with 20% foetal calf serum and 0.7% agar. 40,000 to 200,000 cells in 0.2 ml of the same medium and 0.4% agar were applied to this layer in 24 multiwell plates. The cytostatic substances were added in 0.2 ml of medium.
# (§5) The cultures were incubated at 37° C. in a 7% CO2 atmosphere for 6 to 15 days. The colonies which had grown were then counted under an inverting microscope, the living colonies being stained with a tetrazolium chloride dyestuff 24 hours before the evaluation.
# (§6) The effect of the active compound is expressed in per cent of surviving colonies compared with the colony count of untreated plates (T/C=colony count treated×100/control count untreated).
# (§7) A substance is active if the T/C value is ≤30%.
# (§8) This value is shown as the IC70 value in μg/ml in Table 8.
# HT 29 [5] = test: as above; type: cell-based; conditions: T/C ≤30%
# Experimental: as §2, §3, §4, §5, §6, §7, §8
# LXFL 529 = test: as above; type: cell-based; conditions: T/C ≤30%
# Experimental: as §2, §3, §4, §5, §6, §7, §8
# LXFS 538 = test: as above; type: cell-based; conditions: T/C ≤30%
# Experimental: as §2, §3, §4, §5, §6, §7, §8
# MEXF 989 = test: as above; type: cell-based; conditions: T/C ≤30%
# Experimental: as §2, §3, §4, §5, §6, §7, §8
# OVXF 1023 = test: as above; type: cell-based; conditions: T/C ≤30%
# Experimental: as §2, §3, §4, §5, §6, §7, §8
# OVXF 899 = test: as above; type: cell-based; conditions: T/C ≤30%
# Experimental: as §2, §3, §4, §5, §6, §7, §8
# SW 480 [6] = test: as above; type: cell-based; conditions: T/C ≤30%
# Experimental: as §2, §3, §4, §5, §6, §7, §8
# [7] = system: large-cell lung carcinoma LXFL 529; test: In vivo inhibition of tumour growth using a naked mouse model; set-up: species or system Athymic naked mice (NMRI nu/nu strain)
# Text: Athymic naked mice (NMRI nu/nu strain) were used for all the in vivo experiments for investigation of the inhibition of tumour growth. The large-cell lung carcinoma LXFL 529 selected was developed by serial passage in naked mice.
# The tumour was implanted subcutaneously in both flanks of nu/nu naked mice 6 to 8 weeks old. Treatment was started, regardless of the doubling time, as soon as the tumours had reached a diameter of 5-7 mm. The mice were allocated to the treatment group and the control group (5 mice per group with 8-10 evaluable tumours) by randomization. The individual tumours of the control group all grew progressively.
# The size of the tumours was measured in two dimensions by means of a sliding gauge. The tumour volume, which correlates well with the cell count, was then used for all the evaluations. The volume was calculated according to the equation "length×breadth×breadth/2" ([a×b^2 ]/2, a and b represent two diameters at right angles). The values of the relative tumour volume (RTV) were calculated for each individual tumour by dividing the tumour size on day X with the tumour size on day 0 (at the time of randomization). The mean RTV values were then used for the further evaluation.
# The inhibition of the increase in the tumour volume (tumor volume of the test group/control group, T/C, in per cent) was the concluding measurement value.
# All the compounds were administered according to an intermittent plan in each case on day 1, 5 and 9. Furthermore, all the compounds were administered intraperitoneally (i.p.) using water as the solvent.
# Experimental for SW-480: Cleavage Kinetics With Cells
# (§9) 2.25 ml of PBS are incubated together with 225 μl of a cell suspension (30 mg/ml) and 25 μl of substrate stock solution (1 mg/ml in 3% dimethyl sulphoxide in PBS) at 37° C. After 1 hour and 24 hours, samples of in each case 1 ml are taken, mixed with 1 ml of ethanol and left to stand at 4° C. for 20 minutes. After centrifugation (5 minutes at 3500 rpm), 100 μl of supernatant are taken for the HPLC analysis.
# Experimental for hepatoma: Cleavage Kinetics With Cells
# as §9
IC50 (tumour cell lines),% cleavage in human blood 1 hour [3],% cleavage in human blood 24 hours [3],% cleavage in SW-480 1 hour (SW-480),% cleavage in SW-480 24 hours (SW-480),% cleavage in hepatoma 1 hour (hepatoma),% cleavage in hepatoma 24 hours (hepatoma),Compound,IC50 (HT 29 [1]),IC50 (SW 480 [2]),IC50 (B 16 F 10),IC50 [μg/ml] CSF-induced proliferation of bone marrow parent cells of the mouse [4],IC70 /μg/ml (CXF 280),IC70 /μg/ml (HT 29 [5]),IC70 /μg/ml (LXFL 529),IC70 /μg/ml (LXFS 538),IC70 /μg/ml (MEXF 989),IC70 /μg/ml (OVXF 1023),IC70 /μg/ml (OVXF 899),IC70 /μg/ml (SW 480 [6]),further results
> 250 µM,,,,,,,"N-[N^α,N^ε -bis-(4-hydroxyphenylamino-thiocarbonyl)-lysyl-D-alanyl]-batracyline",,,,,,,,,,,,,
,0%,0%,0%,0%,0%,0%,"CO[C@H]1[C@H](O)[C@@H](Oc2ccc(NC(=S)N[C@H](C)C(=O)NC3C=CCC4CN(c5c(F)cc6c(=O)c(C(=O)O)cn(C7CC7)c6c5Cl)CC43)cc2)O[C@@H](C)[C@H]1O (stereo partly drawn) [Example 12.1, N-{N'-[O-(3-O-Methyl-β-L-fucosyl)-4hydroxy-phenylamino-thiocarbonyl]-D -alanyl}-quinolone-a]",1.5 µM,1 µM,0.1 µM,0.21 µg/mL,70 µg/mL,6 µg/mL,0.9 µg/mL,0.4 µg/mL,< 0.3 µg/mL,12 µg/mL,45 µg/mL,8 µg/mL,
,,,,,,,"CC1OC(Oc2ccc(NC(=S)NC(CCCCN)C(=O)NC3C=CCC4CN(c5c(F)cc6c(=O)c(C(=O)[O-])cn(C7CC7)c6c5Cl)CC43)cc2)C(O)C(OCC(=O)[O-])C1O.[Na+].[Na+] (mixture of isomers) [Example 12.6, N-{N^α -[O-(3-O-Carboxymethyl-β-L-fucosyl)-4-hydroxy-phenylamino-thiocarbonyl]-lysyl}-quinolone-a, di-sodium salt]",7 µM,4 µM,0.3 µM,0.3 µg/mL,,,,,,,,,"Dose [mg/kg/day], maximum tolerated dose (MTD) ([7]; i.p. in water on day 1, 5 and 9): 100 mg/kg/day; Survival time ([7]; individual mice, treated at MTD i.p. on day 1, 5 and 9, di-sodium salt): 23 days and > 26 days and 26 days; Relative tumour volume [% of day 0] ([7]; on day 19, treated at MTD i.p. on day 1, 5 and 9): 300.7 % of day 0; Optimum T/C ([7]; on day 19, tumour volume of test group/control group): 19.4%"
,0%,0%,0%,0%,0%,0%,"COC1C(O)C(C)OC(Oc2ccc(NC(=S)NCCCCC(NC(=S)Nc3ccc(OC4OC(C)C(O)C(OC)C4O)cc3)C(=O)NC3C=CCC4CN(c5c(F)cc6c(=O)c(C(=O)O)cn(C7CC7)c6c5Cl)CC43)cc2)C1O (mixture of isomers) [Example 11.7, N-{N^α,N^ε -Bis-[O-(3--methyl-β-L-fucosyl)-4-hydroxy-phenylamino-thiocarbonyl]-D -lysyl}-quinolone-a]",13 µM,12 µM,15 µM,2.9 µg/mL,> 100 µg/mL,56 µg/mL,4 µg/mL,18 µg/mL,3 µg/mL,136 µg/mL,234 µg/mL,18 µg/mL,
> 250 µM,,,,,,,"N-[N^α,N^ε -bis-(4-hydroxyphenylamino-thiocarbonyl)-lysyl]-batracyline",,,,,,,,,,,,,
,,,,,,,"COC1C(O)C(C)OC(Oc2ccc(NC(=S)NC(CCCCN)C(=O)NC3C=CCC4CN(c5c(F)cc6c(=O)c(C(=O)O)cn(C7CC7)c6c5Cl)CC43)cc2)C1O [Example 12.5, N-{N^α -[O-(3-O-Methyl-β-L-fucosyl)-4-hydroxy-phenylamino-thiocarbonyl]-lysyl}-quinolone-a]",4 µM,1 µM,0.2 µM,,< 0.3 µg/mL,11 µg/mL,2 µg/mL,< 0.3 µg/mL,0.5 µg/mL,9 µg/mL,55 µg/mL,10 µg/mL,
